Data published in patent US9326971B2, “4-methylpyrazole formulations for inhibiting ethanol intolerance” (Raptor Pharmaceuticals Inc., priority 2004, dated 2016).
Like-named read-outs stand apart in the source and are kept apart here.

Key:
ethanol elimination rate [1] = conditions: human subjects, cited from earlier work
ethanol elimination rate [2] = experiment: Percent reduction in ethanol elimination rate versus dose of 4-MP in human subjects (literature data, FIG. 2); assay type: in vivo; conditions: doses of 4 mg/kg 4-MP and less; from linear least squares fit of literature data (FIG. 2)
From the text: As used herein, “ethanol elimination rate” refers to the reduction in ethanol concentration in a subject's bloodstream over time after the subject has ingested ethanol. Typically, an ethanol elimination rate can be expressed in terms of millimole ethanol/kilogram subject body mass/hour. Techniques for blood sampling and analysis of ethanol levels in blood are well known to those of skill in the art. See, e.g., Inoue et al., Alcoholism: Clinical and Experimental Research 1984, 8, 319-322, incorporated herein by reference in its entirety. A “percent change in ethanol elimination rate,” can be calculated as follows:
[formula] where EtOH represents ethanol, and a number for a percent change in ethanol elimination that is less than 100 is a reduction in the percent change in EtOH elimination. Blood ethanol levels can also be calculated, for example, based on algorithms utilizing the amount of ethanol consumed by a subject, the subject's body mass, and time period since the consumption of ethanol, or, as another example, blood ethanol levels can be extrapolated from analysis of a subject's breath, and the like, as known to those of skill in the art. […]

[3] = system: serum acetaldehyde concentration; experiment: Blinded, intra-subject controlled single dose study: serum acetaldehyde after oral 4-MP and ethanol in ethanol-intolerant subjects genotyped for ALDH2 and ADH2; assay type: in vivo, human
Procedure: A blinded, intra-subject controlled, single dose, dose escalation study of 4-MP for mitigation of acetaldehyde related toxicity in subjects with symptoms of inborn altered ethanol metabolism with concomitant ethanol exposure was undertaken.
Twenty-four subjects (n=24) were randomly selected and orally administered 1 mg/kg, 3 mg/kg, or 5 mg/kg of 4-MP, followed 30 minutes later by an oral dose of 20% ethanol ([…]).
Using the same protocol, wherein 4-MP was replaced with placebo, each of the twenty-four randomly selected subjects served as its own control.
The twenty-four randomly selected subjects were then subjected to blood sampling, and the sampled blood analyzed for acetaldehyde levels at select time points following ethanol consumption.
For acetaldehyde analysis, blood samples were prepared by dilution with an internal standard (acetaldehyde-d4), with derivatization of acetaldehyde with dinitrophenyl hydrazine in hydrochloric acid, liquid-liquid portioning and solvent exchange. The derivatization forms an acetaldehyde-dinitrophenyl hydrazine (DNPH) derivative which dramatically increases the boiling point of the molecule and thus its relative stability compared to the acetaldehyde itself (Nagy et al., Rapid Communications in Mass Spectrometry 2004, 18, 2473-2478). The derivatized analytes were separated using a Jones Chromatography (Grace-Vydac), 50 mm×2.1 mm, 3 μm column held in an oven set at 28° C. Two mobile phases were used in a gradient consisting of 30:70 acetonitrile:water versus 90:10 acetonitrile:water with 0.1% formic acid. The derivatized analyte was detected on a High Performance Liquid Chromatograph equipped with a Mass Spectrometer (HPLC/MS/MS). Quantitation was performed using a linear regression curve fit of impurities standards with 1/x weighting, prepared from dilutions of acetaldehyde in water. Samples and standards were injected at 2 μL.
All […] subjects were then genotyped for ALDH2 and ADH2 at the Alcohol Research Center at Indiana University using (i) genomic DNA isolation and (ii) TaqMan assay for allelic discrimination. • i. Genomic DNA isolation: DNA was first isolated using the “HotSHOT” method for isolating PCR quality genomic DNA (Truett et al., Biotechniques 2000, 29(1), 52-54). Briefly, blood blotted on filter paper (3 mm circle) was placed in the well of a 96-well plate and mixed with 75 μL 25 mM NaOH/0.3 mM EDTA solution and heated to 95° C. for 40 minutes, followed by neutralization with 75 μL 40 mM Tris-HCl (pH 5) solution. 1-5 microliters were used for each PCR. • ii. TaqMan Assay for Allelic Discrimination: The allelic discrimination assay used a multiplexed (more than one primer/probe pair per reaction), end-point (data is collected at the end of the PCR process) assay. Each assay mix contained two different TaqMan probes (Applied BioSystems, Foster City, Calif.), labeled with VIC or FAM fluorescent reporter dye, which bound preferentially to one of the alleles. The genotype of each sample was determined by the fluorescence levels of the reporter dyes and was clustered on a graph with other samples of the same genotype. Each reaction contained 5 μL of 2×TaqMan Universal PCR Masternix, No AmpErase UNG, 3.75 μL of water, 0.25 μL of 40× Assay Mix, and 1 μL of DNA sample. Eight or eleven controls were included on each 96-well plate: two no template controls, two or three heterozygous samples, and two or three of each of the homozygous samples. Thermocycling was carried out in MJ Research PTC-200 thermocyclers. The PCR products were then analyzed in an ABI PRISM® 7300 Sequence Detection System (SDS) instrument. SDS Software 1.3.1 converted the raw data to pure dye components and plotted the results of the allelic discrimination on a scatter plot of Allele X versus Allele Y (e.g., ADH2*1 versus ADH2*2); each genotype appeared on the graph as a cluster of points. […]

[4] = all subjects with reduced or absent ALDH2 activity, 1, 3 or 5 mg/kg 4-MP
[5] = reduced ALDH2 activity, ADH2*1/ADH2*1 or ADH2*1/ADH2*2, 1 mg/kg 4-MP
[6] = reduced or absent ALDH2 activity, ADH2*2/ADH2*2, 1 mg/kg 4-MP

Cc1cn[nH]c1 [4-MP, 4-methylpyrazole]
reduction in EtOH elimination (ethanol elimination rate [1]; 6 mg 4-MP per kilogram body weight, Lindros et al. 1981): 20%
reduction in EtOH elimination (ethanol elimination rate [1]; 8.5 mg 4-MP per kilogram body weight, Inoue et al. 1985): 12%
reduction in EtOH elimination (ethanol elimination rate [1]; 10 mg 4-MP per kilogram body weight, Inoue et al. 1984): 20%
reduction in EtOH elimination (ethanol elimination rate [1]; 12.5 mg 4-MP per kilogram body weight, Sarkola et al. 2002): 34%
reduction in ethanol elimination (ethanol elimination rate [2]): less than 10%
Cmax mean and AUC0-8H mean of acetaldehyde concentration in the blood, versus absence of 4-MP (in words) [3, 4]: not significantly reduced
peak mean acetaldehyde concentration in the blood due to drinking ethanol (FIG. 5), versus placebo [3, 4]: not reduced
Cmax mean and AUC0-8H mean of acetaldehyde concentration in the blood, versus absence of 4-MP (in words) [3, 5]: significantly reduced
peak mean acetaldehyde concentration in the blood due to drinking ethanol (FIG. 3), versus placebo [3, 5]: can be reduced
Cmax mean and AUC0-8H mean of acetaldehyde concentration in the blood, versus absence of 4-MP (in words) [3, 6]: not significantly reduced
peak mean acetaldehyde concentration in the blood due to drinking ethanol (FIG. 4), versus placebo [3, 6]: not reduced
